Results from ChEMBL document CHEMBL6115017, “Discovery of DFV890, a Potent Sulfonimidamide-Containing NLRP3 Inflammasome Inhibitor” (J Med Chem, 2025).
Converted amounts (≈) assume the structure as drawn.

What was measured:
[1] = Volume of distribution at steady state in Sprague-Dawley rat at 5 mg/kg, po by LC-MS analysis; type: ADME, organism-based; details: in vivo
[2] = Metabolic stability in rat hepatocytes assessed as intrinsic clearance measured per 10^6 cells; type: ADME, cell-based, Hepatocyte; details: read-out: CLH
[3] = Half life in Sprague-Dawley rat at 5 mg/kg, po by LC-MS analysis; type: ADME, organism-based; details: in vivo
[4] = Metabolic stability in human hepatocytes assessed as intrinsic clearance measured per 10^6 cells; type: ADME, cell-based, Hepatocyte; details: read-out: CLH
[5] = Oral bioavailability in Sprague-Dawley rat at 5 mg/kg administered through oral gavage by LC-MS analysis; type: ADME, organism-based; details: in vivo
[6] = Fraction unbound in human plasma; type: ADME, cell-free
[7] = Clearance in Sprague-Dawley rat at 5 mg/kg, po by LC-MS analysis; type: ADME, organism-based; details: in vivo
[8] = Fraction unbound in Sprague-Dawley rat plasma; type: ADME, cell-free
[9] = Solubility of the compound in PBS at pH 7.4; type: physicochemical

Vdss [1]	hepatocyte CLint [2]	half-life [3]	hepatocyte CLint [4]	bioavailability [5]	fraction unbound [6]	CL/F [7]	fraction unbound [8]	solubility [9]	Compound
0.353 L/kg	5.2 µL/min/1e6 cells	4.13 h	4.2 µL/min/1e6 cells	70%	0.014	3.21 mL/min/kg	0.02		CC(C)(O)c1csc([S@](N)(=O)=NC(=O)Nc2c3c(cc4c2CCC4)CCC3)n1
0.29 L/kg	5.2 µL/min/1e6 cells	2.6 h	0.63 µL/min/1e6 cells		0.009	3.7 mL/min/kg			CC(C)(O)c1cnc([S@](N)(=O)=NC(=O)Nc2c3c(cc4c2CCC4)CCC3)s1
0.541 L/kg	5.4 µL/min/1e6 cells	2.36 h	1.6 µL/min/1e6 cells	100%	0.057	11.1 mL/min/kg	0.05		CC(C)(O)c1nc([S@](N)(=O)=NC(=O)Nc2c3c(cc4c2CCC4)CCC3)cs1
0.191 L/kg	2.5 µL/min/1e6 cells	2.91 h	3.6 µL/min/1e6 cells	50%	0.009	1.15 mL/min/kg	0.011	24 µg/mL (≈ 57.2 µM)	CC(C)(O)c1csc([S@](N)(=O)=NC(=O)Nc2c3c(cc4c2CCC4)CCC3)c1

The next lines start with the compound.

Compound	Vdss [1]	hepatocyte CLint [2]	half-life [3]	hepatocyte CLint [4]	bioavailability [5]	fraction unbound [6]	CL/F [7]	fraction unbound [8]	solubility [9]
CC(C)(O)c1coc(S(=O)(=O)NC(=O)Nc2c3c(cc4c2CCC4)CCC3)c1	0.271 L/kg		0.635 h		47%	0.007	15.9 mL/min/kg	0.013	1080 µg/mL (≈ 2680 µM)
CC(C)(O)c1ncc([S@](N)(=O)=NC(=O)Nc2c3c(c(F)c4c2CCC4)CCC3)s1	0.178 L/kg	3.7 µL/min/1e6 cells	3.07 h	3 µL/min/1e6 cells	68%	0.003	1.08 mL/min/kg	0.007	8 µg/mL (≈ 18.2 µM)
